# Where a name gives a salt, the structure may show the parent alone.
# Biological target: T1, human β-Secretase (soluble part, AA1-AA460; sBACE-Fc) (Homo sapiens, UniProt P56817)
# T1 construct: The soluble part of the human β-Secretase (AA1-AA460) was cloned into the ASP2-Fc10-1-IRES-GFP-neoK mammalian expression vector; made in house
# Assay: TR-FRET assay
# Assay type: biochemical
# Details: substrate (Europium)CEVNLDAEFK(Qsy7) 100 nM, pH 4.5, 15 min at RT; read-out: IC50 (nM) in TR-FRET assay
# Method: The enzyme used in the IGEN Cleavage-, Fluorescent-, TR-FRET- and BiaCore assays is described as follows:
# The soluble part of the human β-Secretase (AA1-AA460) was cloned into the ASP2-Fc10-1-IRES-GFP-neoK mammalian expression vector. The gene was fused to the Fc domain of IgG1 (affinity tag) and stably cloned into HEK 293 cells. Purified sBACE-Fc is stored in Tris buffer, pH 9.2 and has a purity of 95%.
# Enzyme was diluted to 6 μg/mL and the substrate (Europium)[…](Qsy7) to 200 nM in reaction buffer (NaAcetate, chaps, triton x-100, EDTA pH 4.5). Compounds were diluted to the desired concentration in dimethyl sulfoxide (final dimethyl sulfoxide concentration in assay is 5%). […] Enzyme (9 μL) and 1 μL of compound in dimethyl sulfoxide was added to the plate, mixed and pre-incubated for 10 min. Substrate (10 μL) was added and the reaction proceeded in the dark for 15 min at RT. The reaction was stopped with the addition of 7 μL NaAcetate, pH 9. The fluorescence of the product was measured on a Victor II plate reader with an excitation wavelength of 340 nm and an emission wavelength of 615 nm. […] The dimethyl sulfoxide control defined the 100% activity level and 0% activity was defined by exclusion of the enzyme (using reaction buffer instead).
# T1 sequence (P56817 22-460): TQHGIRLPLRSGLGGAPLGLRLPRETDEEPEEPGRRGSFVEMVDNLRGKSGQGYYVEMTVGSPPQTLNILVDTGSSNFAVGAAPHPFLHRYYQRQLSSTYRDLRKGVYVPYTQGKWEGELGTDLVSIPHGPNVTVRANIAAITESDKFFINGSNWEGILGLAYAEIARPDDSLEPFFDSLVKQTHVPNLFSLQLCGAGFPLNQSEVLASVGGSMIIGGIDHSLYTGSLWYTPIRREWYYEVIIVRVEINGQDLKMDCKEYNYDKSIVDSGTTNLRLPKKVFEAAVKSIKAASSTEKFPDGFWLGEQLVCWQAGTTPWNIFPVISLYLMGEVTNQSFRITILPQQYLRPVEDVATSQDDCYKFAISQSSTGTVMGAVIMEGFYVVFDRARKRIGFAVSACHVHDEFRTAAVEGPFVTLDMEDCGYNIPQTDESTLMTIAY
row,IC50 [nM],Compound
1,150,"COc1cccc(-c2cc(C3(c4cccc(OS(=O)(=O)N(C)C)c4)N=C(N)N(C)C3=O)ccc2F)c1 (centres unmarked) [Example 112, 3-[2-Amino-4-(6-fluoro-3′-methoxybiphenyl-3-yl)-1-methyl-5-oxo-4,5-dihydro-1H-imidazol-4-yl]phenyl dimethylsulfamate]"
2,121,"CN1C(=O)C(c2cccc(OS(=O)(=O)N(C)C)c2)(c2ccc(F)c(-c3cc(Cl)cc(Cl)c3)c2)N=C1N (centres unmarked) [Example 113, 3-[2-Amino-4-(3′,5′-dichloro-6-fluorobiphenyl-3-yl)-1-methyl-5-oxo-4,5-dihydro-1H-imidazol-4-yl]phenyl dimethylsulfamate]"
3,35,"CCCS(=O)(=O)Oc1ccc(C2(c3ccc(F)c(-c4cncc(OC)c4)c3)N=C(N)N(C)C2=O)cc1 (centres unmarked) [Example 129, 4-{2-Amino-4-[4-fluoro-3-(5-methoxypyridin-3-yl)phenyl]-1-methyl-5-oxo-4,5-dihydro-1H-imidazol-4-yl}phenyl propane-1-sulfonate hydrochloride]"
4,59,"CCCS(=O)(=O)Oc1cccc(C2(c3ccc(F)c(-c4cncc(OC)c4)c3)N=C(N)N(C)C2=O)c1 (centres unmarked) [Example 130, 3-{2-Amino-4-[4-fluoro-3-(5-methoxypyridin-3-yl)phenyl]-1-methyl-5-oxo-4,5-dihydro-1H-imidazol-4-yl}phenyl propane-1-sulfonate hydrochloride]"
5,33,"CN1C(=O)C(c2cccc(OS(=O)(=O)c3ccccc3)c2)(c2ccc(F)c(-c3cncnc3)c2)N=C1N (centres unmarked) [Example 133, 3-[2-Amino-4-(4-fluoro-3-pyrimidin-5-ylphenyl)-1-methyl-5-oxo-4,5-dihydro-1H-imidazol-4-yl]phenyl benzenesulfonate hydrochloride]"
6,116,"CN1C(=O)C(c2ccc(OS(=O)(=O)C(F)(F)F)cc2)(c2ccc(F)c(-c3cncc(Cl)c3)c2)N=C1N (centres unmarked) [Example 140, 4-{2-Amino-4-[3-(5-chloropyridin-3-yl)-4-fluorophenyl]-1-methyl-5-oxo-4,5-dihydro-1H-imidazol-4-yl}phenyl trifluoromethanesulfonate 0.75 acetate]"
7,107,"CN1C(=O)C(c2ccc(OS(=O)(=O)C(F)(F)F)cc2)(c2ccc(F)c(-c3cccnc3)c2)N=C1N (centres unmarked) [Example 141, 4-[2-Amino-4-(4-fluoro-3-pyridin-3-ylphenyl)-1-methyl-5-oxo-4,5-dihydro-1H-imidazol-4-yl]phenyl trifluoromethanesulfonate 0.5 acetate]"
8,140,"CN1C(=O)C(c2ccc(OS(=O)(=O)C(F)(F)F)cc2)(c2ccc(F)c(-c3cccnc3F)c2)N=C1N (centres unmarked) [Example 142, 4-{2-Amino-4-[4-fluoro-3-(2-fluoropyridin-3-yl)phenyl]-1-methyl-5-oxo-4,5-dihydro-1H-imidazol-4-yl}phenyl trifluoromethanesulfonate 0.75 acetate]"
9,214,"CN1C(=O)C(c2ccc(OS(=O)(=O)C(F)(F)F)cc2)(c2ccc(F)c(-c3cnccn3)c2)N=C1N (centres unmarked) [Example 143, 4-[2-Amino-4-(4-fluoro-3-pyrazin-2-ylphenyl)-1-methyl-5-oxo-4,5-dihydro-1H-imidazol-4-yl]phenyl trifluoromethanesulfonate 0.5 acetate]"
10,321,"CN1C(=O)C(c2ccc(OS(=O)(=O)C(F)(F)F)cc2)(c2ccc(F)c(-c3cncc(C#N)c3)c2)N=C1N (centres unmarked) [Example 144, 4-{2-Amino-4-[3-(5-cyanopyridin-3-yl)-4-fluorophenyl]-1-methyl-5-oxo-4,5-dihydro-1H-imidazol-4-yl}phenyl trifluoromethanesulfonate 0.5 acetate]"

row,Compound,IC50 [nM]
1,"CN1C(=O)C(c2cccc(OS(=O)(=O)N(C)C)c2)(c2ccc(F)c(-c3cccnc3)c2)N=C1N (centres unmarked) [Example 111, 3-[2-Amino-4-(4-fluoro-3-pyridin-3-ylphenyl)-1-methyl-5-oxo-4,5-dihydro-1H-imidazol-4-yl]phenyldimethylsulfamate]",93
